“And” between values parts separate entries of the source, which are not always exact repeats. Equal values may be shown once.
Target: Nonstructural protein 3 (Zika virus, UniProt A0A024AXB9)
Assay: Functional biochemical assay to identify treatments for viral infectious disease that targets Zika NS2B-NS3 protease. Utilizing a direct enzyme activity measurement method, reading the fluorescence intensity is used to characterize the relative potency of inhibitors as IC50.
Design: species or system PRVABC59

Chain of Nonstructural protein 3 (A0A024AXB9 whole entry): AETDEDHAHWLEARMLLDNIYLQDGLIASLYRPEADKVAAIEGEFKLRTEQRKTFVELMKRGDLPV

| SMILES | IC50 |
| --- | --- |
| Cc1n[nH]cc1-c1ccc([C@@H](NC(=O)OCc2ccccc2)C(=O)Nc2cccc(CN)c2)cc1 | > 99.5 µM |
| COc1ccc(OC)c([C@H]2CCCN2C(=O)Nc2ccc3c(c2)CNC3)c1 | > 25 µM |
| N[C@H]1CCN(c2ccc(NS(=O)(=O)c3ccc(Oc4ccccc4Cl)cc3)cc2)C1 | 37.3 µM |
| Cc1nccn1CCOc1cccc([C@H](NC(=O)OCc2ccccc2)C(=O)Nc2cccc(CN)c2)c1 | > 99.5 µM |
| N#Cc1cc(C(=O)Nc2ccc3c(c2)CNC3)cc(C(F)(F)F)c1 | 0.533 µM |
| Cc1occ(C(F)(F)F)c1C(=O)N[C@H](C(=O)Nc1cccc(CN)c1)c1ccc(OCc2ccccc2)cc1 | 61 µM |
| O=C(Nc1ccc2c(c1)CNC2)c1cc(Cl)ccc1OC1CCCC1 | 5.03 µM |
| Cc1c(C(=O)Nc2cc(C(=O)N3CCOCC3)ccn2)cc(C2CC2)n1C | > 25 µM |
| COC1CCN(C(=O)c2ccnc(NC(=O)c3cc(C4CC4)n(C)c3C)c2)CC1 | > 25 µM |
| Clc1cc([C@@H]2C[C@H]2c2cccc(C3CCNCC3)c2)c2cn[nH]c2c1 | 4.53 µM and 7.81 µM |
| CC(C)NC(=O)[C@H](Nc1ccc2c(c1)CNC2)c1cc(Cl)cc2[nH]c(-c3ccccc3)nc12 | 0.042 µM and 0.019 µM and 0.054 µM and 0.033 µM and 0.016 µM and 0.069 µM |
| O=C(Nc1ccc2c(c1)CNC2)c1cc(C(F)(F)F)nc2[nH]ccc12 | 7.32 µM |
| Cc1c(C(=O)Nc2n[nH]c3c2CNC3)cc(C2CC2)n1C | > 99.5 µM |
| O=C(Nc1ccc2c(c1)C(=O)OC2)c1cccc(CC2CNC2)c1 | > 25 µM |
| O=C(Nc1ccc2c(c1)CNC2)c1cc(F)cc2[nH]nnc12 | 0.081 µM and 0.132 µM |
| O=C(NCCO)c1cc(Cl)ccc1NS(=O)(=O)c1ccc(Oc2ccccc2Cl)cc1 | > 99.5 µM |
| Cn1ccnc1COc1cccc([C@H](NC(=O)OCc2ccccc2)C(=O)Nc2cccc(CN)c2)c1 | > 99.5 µM |
| CN1C[C@H](c2cccc(CN)c2)[C@@H](c2cc(Cl)cc(NC(=O)OCc3ccccc3)c2)C1 | > 99.5 µM |
| C[C@](N)(C(=O)Nc1ccc2c(c1)C(=O)OC2)c1cccs1 | > 25 µM |
| C=CC[C@H]1NCc2cc(NC(=O)c3cc(F)cc4[nH]ncc34)ccc21 | 0.289 µM |
| Cc1ccc(S(=O)(=O)CCCn2ccc3sccc3c2=O)cc1 | > 99.5 µM |
| COCc1cc(Cl)ccc1NS(=O)(=O)c1ccc(Oc2ccccc2Cl)cc1 | > 99.5 µM |
| Cc1cc(C(=O)Nc2cccc(CN)c2)nc2c(C(C)C)cnn12 | > 99.5 µM |
| O=C(O)c1cc(Cl)c(F)cc1NS(=O)(=O)c1ccc(Oc2ccccc2)cc1 | 30.3 µM |
| CN(C)Cc1ccc(NC(=O)c2cc(Cl)cc(NC(=O)OCc3ccccc3)c2)cc1 | 70.3 µM |
| Cc1n[nH]c2cc(C(=O)N3CCC(C)(NC(=O)[C@H]4C[C@H](N(C)C)C4)CC3)ccc12 | > 99.5 µM |

| SMILES | IC50 |
| --- | --- |
| O=C(Nc1cc(Cl)cc(-c2cc(C(=O)O)n(-c3ccc(F)cc3)n2)c1)OCc1ccccc1 | 32.4 µM |
| FC(F)(F)c1ccccc1C1CCN(Cc2c[nH]c3ccccc23)CC1 | > 99.5 µM |
| CNCc1cccc(NC(=O)c2cc(Cl)cc3[nH]ncc23)c1 | 4.8 µM |
| O=C(Nc1cc(Cl)cc(C(=O)Nc2cccc(CO)c2)c1)OCc1ccccc1 | > 99.5 µM |
| O=C1Cc2c(cccc2C(=O)NCC2(F)CC3(CCOCC3)C2)N1 | > 25 µM |
| Cc1nn(CCO)c(C(F)F)c1C(=O)Nc1cccc(CN)c1 | > 99.5 µM |
| O=C(O)c1cc(Cl)ccc1S(=O)(=O)Nc1ccc(S(=O)(=O)Nc2ccccc2)cc1 | > 99.5 µM |
| O=C(O)c1cc2c(cc1NS(=O)(=O)c1ccc(F)cc1)CCC2 | > 99.5 µM |
| Nc1cccc(NC(=O)c2cc(Cl)cc(NC(=O)OCc3ccccc3)c2)n1 | > 99.5 µM |
| N#Cc1c(C(F)F)cccc1N1CCC(n2ncc(N)c2C(F)(F)F)CC1 | > 99.5 µM |
| Cc1c(C(=O)Nc2cccc([C@H]3CCOC3)c2)cc(C2CC2)n1C | > 25 µM |
| O=C(NC[C@H]1CCCO1)[C@H](Nc1ccc2c(c1)CNC2)c1cc(Cl)cc2[nH]ncc12 | 0.111 µM |
| CNC(=O)C[C@H](Nc1ccccn1)c1cc(Cl)cc(Br)c1 | > 99.5 µM |
| NCc1cccc(NC(=O)[C@H]2c3ccc(OCc4ccccc4)cc3CCN2C(=O)OCc2ccccc2)c1 | 17.3 µM |
| O=C(Nc1ccc2c(c1)CNC2)c1cc(F)cc(-c2ccncc2)c1 | 0.215 µM |
| CCn1c(=O)c(N2CC[C@H](CO)C2)nc2ccc(C(=O)N(C)C)cc21 | > 99.5 µM |
| CNC(=O)[C@]1(Nc2ccc3c(c2)CNC3)C(=O)Nc2c(OC)cc(Br)cc21 | 53.8 µM |
| NCc1cccc([C@H]2C[C@@H]2c2cc(Cl)cc(NC(=O)OCc3ccccc3)c2)c1 | 7.36 µM and 6.03 µM |
| Cc1c(C(=O)Nc2cc(C(=O)N(C)C)ccn2)cc(C2CC2)n1C | > 99.5 µM |
| CN(C)CCOc1cccc(CNC(=O)[C@@H](NC(=O)OCc2ccccc2)c2ccc(OCc3ccccc3)cc2)c1 | > 99.5 µM |
| O=C(Nc1ccc2c(c1)CNC2)c1cc(F)cc2[nH]c(CC[C@H]3CCCOC3)nc12 | 0.135 µM |
| CC(C)c1nc2c(C(=O)Nc3cccc(CN)c3)cccc2[nH]1 | 14.3 µM |
| COC(=O)c1cc(C(=O)Nc2ccc3c(c2)CNC3)cc2[nH]ccc12 | > 25 µM |
| O=C(Nc1ccc2c(c1)CNC2)c1ccc(OCC(F)(F)F)nc1 | 22.2 µM |
| CCCN(C)CC(=O)N1CCC([C@@H](NC(=O)OCc2ccccc2)C(=O)Nc2cccc(CN)c2)CC1 | > 99.5 µM |
